Assays:
[1] = test system: lung cancer cell lines without FGFR1 gene amplification; assay: Tritiated thymidine incorporation, lung cancer cell lines without FGFR1 gene amplification (average); format: cell-based, Human; conditions: averaged over lung cancer cell lines without FGFR1 gene amplification; vs control ECD-Fc
Procedure: (§1) To determine the impact of FGFR1-ECD.339-Fc on lung cancer cell lines in tissue culture, cells were plated in a Microtest™ 96-well tissue culture plate (Becton Dickenson, Franklin Lakes, N.J.) at a density of 5×10^3 cells/well in medium containing 10%, 1% or 0.1% FBS in the presence or absence of 15 μg/ml FGFR1-ECD.339-Fc (SEQ ID NO: 6) or an unrelated ECD-Fc fusion protein (as a negative control). Plates were incubated at 37° C. at 5% CO2 for 4 days and then assayed to determine the impact of FGFR1-ECD.339-Fc on cell number and proliferation.
To determine the impact of FGFR1-ECD.339-Fc on cell proliferation the tritiated thymidine ([3H]-TdR) incorporation assay was employed. […] After 16-h exposure, tritiated thymidine incorporation was assessed. […] Thymidine incorporation was determined as counts per minute (cpm) on a Topcount NXT (PerkinElmer) scintillation counter. Results were expressed as cpm/well.
The impact of FGFR1-ECD.339-Fc on cell proliferation as assessed by tritiated thymidine incorporation was also compared between FGFR1 gene amplified and non-amplified lung cancer cell lines (FIG. 4). An average percent reduction in cell proliferation with FGFR1-ECD.339-Fc addition was determined across all FBS concentrations examined for each FGFR1 gene amplified cell line and the panel of non-FGFR1 gene amplified cell lines indicated above. […]

[2] = Serum phosphate in rats; format: in vivo, Sprague Dawley rats
Procedure: FGFR1-ECD.339-Fc binds to the mitogenic FGFs with 10 to 100-fold higher affinity than to FGF-23. […] The potential biological impact of this relatively weak FGFR1-ECD.339-Fc/FGF-23 binding was investigated in rats following four weekly doses of FGFR1-ECD.339-Fc at a dose range of 10-200 mg/kg/qwk.
In the first experiment, Sprague Dawley rats (Charles River Labs; N=5/group) were dosed with vehicle, 10, 50 or 200 mg/kg/qwk of FGFR1-ECD.339-Fc for four weekly doses and plasma concentrations of FGFR1-ECD.339-Fc were determined throughout the study by an ELISA based detection method.
In the second experiment, Sprague Dawley rats (Charles River Labs; N=5/group) were administered the FGFR kinase inhibitor PD173074 (Chemdea, Ridgewood, N.J.; 50 mg/kg/day) or vehicle control by oral gavage for 7 days; or were administered FGFR1-ECD.339-Fc (200 mg/kg) or appropriate vehicle weekly by intravenous administration. Blood samples were collected at the time points indicated and serum phosphate was determined at 24 and 168 hours post-initiation of dosing (Idexx laboratories, Westbrook, Mass.).

[3] = test system: NCI-H1703 cells; assay: Tritiated thymidine incorporation assay, NCI-H1703; format: cell-based, Human; conditions: NCI-H1703 (NSCLC; 6 copies/cell)
Procedure: as §1
To determine the impact of FGFR1-ECD.339-Fc on cell proliferation the tritiated thymidine ([3H]-TdR) incorporation assay was employed. Following incubation of lung cancer cell lines with FGFR1-ECD.339-Fc or an unrelated ECD-Fc negative control, tritiated thymidine ([3H]-TdR; PerkinElmer, Boston, Mass.) was added at activity of 1 μCi/well. After 16-h exposure, tritiated thymidine incorporation was assessed. Cells were washed with Dulbecco's phosphate-buffered saline (DPBS; Mediatech, Inc.) and removed from cell culture surface by incubation with trypsin-EDTA (Mediatech, Inc.). […] Thymidine incorporation was determined as counts per minute (cpm) on a Topcount NXT (PerkinElmer) scintillation counter. Results were expressed as cpm/well. […]

[4] = Histological analysis of 55 tissues in rats; format: in vivo; conditions: high-dose treated animals
Procedure: At the 200 mg/kg/qwk dose the maximal plasma concentration of the drug was 3.6 and 4.2 mg/ml for female and male rats, respectively (FIG. 18A).

[5] = test system: VEGF-induced proliferation of HUVECs; assay: VEGF-induced HUVEC proliferation (CellTiter-Glo); format: cell-based, human; conditions: 15 ng/ml VEGF-A165; 10 μg/ml FGFR1-ECD.339-Fc; 3 days
Procedure: To determine whether FGFR1-ECD.339-Fc blocks VEGF-induced proliferation of endothelial cells, HUVEC cells (Life Technologies, Grand Island, N.Y.) were seeded at a density of 4×10^3 cells/well in basal media (Medium 200 (Life Technologies) with 2% heat inactivated FBS) and stimulated with either 10 ng/ml FGF2 (R&D Systems, Minneapolis, Minn.) or 15 ng/ml VEGF-A165 (R&D Systems, Minneapolis, Minn.) either in the presence of absence of 10 μg/ml FGFR1-ECD.339-Fc. HUVEC cell proliferation was determined 3 days post-stimulation using CellTiter-Glo® Luminescent Cell Viability Assay.

For “FGFR1-ECD.339-Fc: FGFR1 ECD fusion molecule: human FGFR1 extracellular domain ending at amino acid 339 fused to an Fc; SEQ ID NO: 6 (mature form)”, the “average decrease in CPM (tritiated thymidine incorporation)” value [1] was 17.0%, the plasma phosphate ([2]; 200 mg/kg/qwk (vehicle 9.61)) was 10.19 mg/dL and the “changes in plasma phosphate compared to vehicle” value ([2]; any dose (10, 50 or 200 mg/kg/qwk)) was “no significant changes”. For the same substance, the “reduction of cell proliferation (tritiated thymidine incorporation)” value [3] was 15%, the “histological changes (hyperphosphatemia-related calcium-phosphorus deposition)” value [4] was “failed to reveal any changes” and the “blocking of VEGF-induced proliferation of HUVECs” value [5] was “did not block”.

Source: patent US20130136740A1, “METHODS OF TREATING CANCER” (priority 2011, published 2013)
